According to patent US11548883B2, “Compounds as autotaxin inhibitors and pharmaceutical compositions comprising the same” (LegoChem Biosciences, Inc., priority 2017, dated 2023):
Counter-ions that a name gives are not always drawn.

Legend:
human ENPP2 = human ENPP2 (Homo sapiens (Human), UniProt Q13822); test: Inhibitory activity on human ENPP2 (FS-3 assay); format: biochemical; settings: human ENPP2, FS-3 substrate, Table 2
Protocol: Two-fold dilution of each test compound solution (10 μM, 100% dimethyl sulfoxide) is carried out on 96-well V bottom plate (Costar 3363). After ten-fold dilution of each the test compound solution (100% dimethyl sulfoxide) with deionized distilled water, 10 μL of the diluted each compound solution (10% dimethyl sulfoxide) was aliquoted to a black flat bottom 96-well plate (Costar 3915).

[1] = system: LPA production in blood serum; test: Inhibitory activity on LPA production in mouse blood serum; format: biochemical; settings: mouse blood serum (m), 18:1 LPC added

Compound	IC50 (human ENPP2) [nM]	IC50 [1] [nM]
CN1C(=O)N(c2ccc3[nH]nnc3c2)C2(CCN(C(=O)c3cnc(NCc4cccc(OC(F)(F)F)c4)nc3)CC2)C1=O [Compound 9, 1-(1H-1,2,3-benzotriazol-5-yl)-3-methyl-8[2-({[3-(trifluoromethoxy)phenyl]methyl}amino)pyrimidine-5-carbonyl]-1,3,8-triazaspiro[4,5]-decane-2,4-dione]	9	–
O=C(Cc1nnc(-c2cnc(NC3Cc4ccccc4C3)nc2)o1)N1CCc2[nH]nnc2C1 [Compound 33, 2-(5-(2-((2,3-dihydro-1H-inden-2-yl)amino)pyrimidin-5-yl)-1,3,4-oxadiazol-2-yl)-1-(1,4,6,7-tetrahydro-5H-[1,2,3]triazolo[4,5-c]pyridin-5-yl)ethan-1-one]	2	–
O=C(O)C1=CCN(C(=O)Cc2nnc(-c3cnc(NC4Cc5ccccc5C4)nc3)o2)CC1 [Compound 48, 1-[2-(5-{2-[(2,3-dihydro-1H-inden-2-yl)amino]pyrimidin-5-yl}-1,3,4-oxadiazol-2-yl)acetyl]-1,2,3,6-tetrahydropyridine-4-carboxylic Acid]	13.3	–
O=C(Cc1nnc(-c2cnc(NC3Cc4ccccc4C3)nc2)o1)Nc1ccc(C(=O)O)cc1 [Compound 50, 4-[2-(5-{2-[(2,3-dihydro-1H-inden-2-yl)amino]pyrimidin-5-yl}-1,3,4-oxadiazol-2-yl)acetamido]benzoic Acid]	4.5	–
O=C(Cc1nnc(-c2cnc(NC3Cc4ccccc4C3)nc2)[nH]1)N1CCc2[nH]nnc2C1 [Compound 52, 2-(5-{2-[(2,3-dihydro-1H-inden-2-yl)amino]pyrimidin-5-yl}-4H-1,2,4-triazol-3-yl)-1-{1H,4H,5H,6H,7H-[1,2,3]triazolo[4,5-c]pyridin-5-yl}ethan-1-one]	3.6	–
CCc1cc(-c2cnc(NC3Cc4ccccc4C3)nc2)nn1CC(=O)N1CCc2[nH]nnc2C1 [Compound 54, 2-(3-{2-[(2,3-dihydro-1H-inden-2-yl)amino]pyrimidin-5-yl}-5-ethyl-1H-pyrazol-1-yl)-1-{1H,4H,5H,6H,7H-[1,2,3]triazolo[4,5-c]pyridin-5-yl}ethan-1-one]	15.8	–
O=C(Cn1cc(-c2cnc(NC3Cc4ccccc4C3)nc2)cn1)N1CCc2[nH]nnc2C1 [Compound 56, 2-(4-{2-[(2,3-dihydro-1H-inden-2-yl)amino]pyrimidin-5-yl}-1H-pyrazol-1-yl)-1-{1H,4H,5H,6H,7H-[1,2,3]triazolo[4,5-c]pyridin-5-yl}ethan-1-one]	2.2	13
O=C(Cn1cc(-c2cnc(NC3Cc4ccccc4C3)nc2)cn1)Nc1ccc2[nH]c(=O)oc2c1 [Compound 57, 2-(4-{2-[(2,3-dihydro-1H-inden-2-yl)amino]pyrimidin-5-yl}-1H-pyrazol-1-yl)-N-(2-oxo-2,3-dihydro-1,3-benzoxazol-6-yl)acetamide]	2	–
O=C(Cn1cc(-c2ccc(NC3Cc4ccccc4C3)nc2)cn1)N1CCc2[nH]nnc2C1 [Compound 58, 2-(4-{6-[(2,3-dihydro-1H-inden-2-yl)amino]pyridin-3-yl}-1H-pyrazol-1-yl)-1-{1H,4H,5H,6H,7H-[1,2,3]triazolo[4,5-c]pyridin-5-yl}ethan-1-one]	3.5	–
O=C(Cn1cc(-c2cnc(NC3Cc4ccccc4C3)cn2)cn1)N1CCc2[nH]nnc2C1 [Compound 59, 2-(4-{5-[(2,3-dihydro-1H-inden-2-yl)amino]pyrazin-2-yl}-1H-pyrazol-1-yl)-1-{1H,4H,5H,6H,7H-[1,2,3]triazolo[4,5-c]pyridin-5-yl}ethan-1-one]	11.1	–
O=C(Cn1cnc(-c2cnc(NC3Cc4ccccc4C3)nc2)c1)N1CCc2[nH]nnc2C1 [Compound 60, 2-(4-{2-[(2,3-dihydro-1H-inden-2-yl)amino]pyrimidin-5-yl}-1H-imidazol-1-yl)-1-{1H,4H,5H,6H,7H-[1,2,3]triazolo[4,5-c]pyridin-5-yl}ethan-1-one]	1.8	11
CCOc1nn(CC(=O)N2CCc3[nH]nnc3C2)cc1-c1cnc(NC2Cc3ccccc3C2)nc1 [Compound 61, 2-(4-{2-[(2,3-dihydro-1H-inden-2-yl)amino]pyrimidin-5-yl}-3-ethoxy-1H-pyrazol-1-yl)-1-{1H,4H,5H,6H,7H-[1,2,3]triazolo[4,5-c]pyridin-5-yl}ethan-1-one]	–	25
O=C(Cn1cc(-c2cnc(NC3Cc4ccccc4C3)nc2)c(OC2CNC2)n1)N1CCc2[nH]nnc2C1 [Compound 62, 2-[3-(azetidin-3-yloxy)-4-{2-[(2,3-dihydro-1H-inden-2-yl)amino]pyrimidin-5-yl}-1H-pyrazol-1yl]-1-{1H,4H,5H,6H,7H-[1,2,3]triazolo[4,5-c]pyridin-5-yl}ethan-1-one hydrochloride]	2.4	22
O=C(Cn1cc(-c2cnc(NC3Cc4ccccc4C3)nc2)c(OCc2ccccc2)n1)N1CCOCC1 [Compound 64, 2-[3-(benzyloxy)-4-{2-[(2,3-dihydro-1H-inden-2-yl)amino]pyrimidin-5-yl}-1H-pyrazol-1-yl]-1-(morpholin-4-yl)ethan-1-one]	3	–
O=C(Cn1cc(-c2cnc(NC3Cc4ccccc4C3)nc2)c(O)n1)N1CCc2[nH]nnc2C1 [Compound 65, 2-(4-{2-[(2,3-dihydro-1H-inden-2-yl)amino]pyrimidin-5-yl}-3-hydroxy-1H-pyrazol-1-yl)-1-{1H,4H,5H,6H,7H-[1,2,3]triazolo[4,5-c]pyridin-5-yl}ethan-1-one]	< 1.56	30
O=C(Cn1cc(-c2cnc(NC3Cc4ccccc4C3)nc2)c(OCCN2CCNCC2)n1)N1CCc2[nH]nnc2C1 [Compound 67, 2-(4-{2-[(2,3-dihydro-1H-inden-2-yl)amino]pyrimidin-5-yl}-3-[2-(piperazin-1-yl)ethoxy]-1H-pyrazol-1-yl)-1-{1H,4H,5H,6H,7H-[1,2,3]triazolo[4,5-c]pyridin-5-yl}ethan-1-one]	6.1	–
O=C(Cn1cc(-c2cnc(NC3Cc4ccccc4C3)nc2)c(OC2CCNCC2)n1)N1CCc2[nH]nnc2C1 [Compound 69, 2-(4-{2-[(2,3-dihydro-1H-inden-2-yl)amino]pyrimidin-5-yl}-3-(piperidin-4-yloxy)-1H-pyrazol-1-yl)-1-{1H,4H,5H,6H,7H-[1,2,3]triazolo[4,5-c]pyridin-5-yl}ethan-1-one]	4	–
O=C(Cn1cc(-c2cnc(NC3Cc4ccccc4C3)nc2)c(OC2CCN(CC(F)F)CC2)n1)N1CCc2[nH]nnc2C1 [Compound 71, 2-(3-{[1-(2,2-difluoroethyl)piperidin-4-yl]oxy}-4-{2-[(2,3-dihydro-1H-inden-2-yl)amino]pyrimidin-5-yl}-1H-pyrazol-1-yl)-1-{1H,4H,5H,6H,7H-[1,2,3]triazolo[4,5-c]pyridin-5-yl}ethan-1-one]	3.6	–
O=C(Cn1cc(-c2cnc(NC3Cc4ccccc4C3)nc2)c(C(=O)N2CCCCC2)n1)N1CCc2[nH]nnc2C1 [Compound 76, 2-(4-{2-[(2,3-dihydro-1H-inden-2-yl)amino]pyrimidin-5-yl}-3-(piperidine-1-carbonyl)-1H-pyrazol-1-yl)-1-{1H,4H,5H,6H,7H-[1,2,3]triazolo[4,5-c]pyridin-5-yl}ethan-1-one]	3	–
O=C(Cn1cc(-c2cnc(NC3Cc4ccccc4C3)nc2)c(C(=O)N2CCNCC2)n1)N1CCc2[nH]nnc2C1 [Compound 77, 2-(4-{2-[(2,3-dihydro-1H-inden-2-yl)amino]pyrimidin-5-yl}-3-(piperazine-1-carbonyl)-1H-pyrazol-1-yl)-1-{1H,4H,5H,6H,7H-[1,2,3]triazolo[4,5-c]pyridin-5-yl}ethan-1-one hydrochloride]	6.5	–
CCc1c(-c2cnc(NC3Cc4ccccc4C3)nc2)cnn1CC(=O)N1CCc2[nH]nnc2C1 [Compound 78, 2-(4-{2-[(2,3-dihydro-1H-inden-2-yl)amino]pyrimidin-5-yl}-5-ethyl-1H-pyrazol-1-yl)-1-{1H,4H,5H,6H,7H-[1,2,3]triazolo[4,5-c]pyridin-5-yl}ethan-1-one]	2.4	–
O=C(Cn1cc(-c2cnc(NC3Cc4ccccc4C3)nc2)c(CN2CCc3ccccc32)n1)N1CCc2[nH]nnc2C1 [Compound 83, 2-(4-{2-[(2,3-dihydro-1H-inden-2-yl)amino]pyrimidin-5-yl}-3-(2,3-dihydro-1H-indol-1-ylmethyl)-1H-pyrazol-1-yl)-1-{1H,4H,5H,6H,7H-[1,2,3]triazolo[4,5-c]pyridin-5-yl}ethan-1-one]	2.1	–
O=C(Cn1cc(-c2cnc(NC3Cc4ccccc4C3)nc2)c(CN2CCC(F)(F)CC2)n1)N1CCc2[nH]nnc2C1 [Compound 85, 2-{3-[(4,4-difluoropiperidin-1-yl)methyl]-4-{2-[(2,3-dihydro-1H-inden-2-yl)amino]pyrimidin-5-yl}-1H-pyrazol-1-yl}-1-{1H,4H,5H,6H,7H-[1,2,3]triazolo[4,5-c]pyridin-5-yl}ethan-1-one hydrofluoride]	2.2	–
O=C(Cn1cc(-c2cnc(NC3Cc4ccccc4C3)nc2)c(CN2CC=C(c3ccccc3)CC2)n1)N1CCc2[nH]nnc2C1 [Compound 86, 2-(4-{2-[(2,3-dihydro-1H-inden-2-yl)amino]pyrimidin-5-yl}-3-[(4-phenyl-1,2,3,6-tetrahydropyridin-1-yl)methyl]-1H-pyrazol-1-yl)-1-{3H,4H,5H,6H,7H-[1,2,3]triazolo[4,5-c]pyridin-5-yl}ethan-1-one]	3	–
CN1CCN(Cc2nn(CC(=O)N3CCc4[nH]nnc4C3)cc2-c2cnc(NC3Cc4ccccc4C3)nc2)CC1=O [Compound 87, 4-[(4-{2-[(2,3-dihydro-1H-inden-2-yl)amino]pyrimidin-5-yl}-1-(2-oxo-2-{1H,2H,3H,4H,5H,6H,7H-[1,2,3]triazolo[4,5-c]pyridin-5-yl}ethyl)-1H-pyrazol-3-yl)methyl]-1-methylpiperazin-2-one]	3.1	–
O=C1CNCCN1Cc1nn(CC(=O)N2CCc3[nH]nnc3C2)cc1-c1cnc(NC2Cc3ccccc3C2)nc1 [Compound 88, 1-[(4-{2-[(2,3-dihydro-1H-inden-2-yl)amino]pyrimidin-5-yl}-1-(2-oxo-2-{1H,4H,5H,6H,7H-[1,2,3]triazolo[4,5-c]pyridin-5-yl}ethyl)-1H-pyrazol-3-yl)methyl]piperazin-2-one]	4.1	–
